The source of these data is patent US5192756A, “Aminosterol antibiotic” (The Children's Hospital of Pennsylvania, priority 1992, dated 1993).

In brackets after ≈: the same amount, converted by molar mass. No end group written: not given here.

One data set relates to E. coli. The data set can be described thus: Minimal inhibitory concentration, E. coli. The class given is cell-based. To be noted: E. coli ATCC 25922, 1/2×TSB, 37° C., 18 to 24 hours; for MIC: Escherichia coli, ATCC25922. The method, then: (§1) Squalamine was assayed in vitro against several microbial organisms to evaluate its spectrum of activity.
(§2) Minimal inhibitory concentrations for the bacteria and yeast were determined by incubating 0.9-11×10^5 colony-forming units/ml of log-phase organisms in 1/2×tryptica soy broth (TSB) with increasing concentrations of sample in static 96-2311 microtiter plates (Corning, Inc., Corning, N.Y.) at 37° C. for 18 to 24 hours. The minimal inhibitory concentration is the concentration of sample at which no growth was observed. Control incubation in the absence of […] served to set a baseline value.
(§3) Initial sample concentrations were 2 mg/ml in 250 mM sodium acetate pH 6.6, 11.2 mM HCl, except taurolithocholic acid 3-sulfate which was 2 mg/ml in 50 mM sodium acetate, and squalamine to which HCl was not added because it was acidic following the last step of purification. Spermidine HCl, taurolithocholic acid 3-sulfate, melittin, holothurin and ampicillin were purchased from Sigma (St. Louis, Miss.). CHAPS (3-[(3-cholamidopropyl)dimethylammonio]-1-propane sulfonate dihydrate) was purchased from Aldrich (Milwaukee, Wis.). Conessine was purchased from Aldrich Rare Chemicals Division (Milwaukee, Wis.). Magainin-II amide and CPF-amide were made by Magainin Pharmaceuticals, Inc. (Plymouth Meeting, Penn.). The CPF peptide used in the assay has the sequence […]-NH2. (Richter, K., et al., J. Biol. Chem. 261, 3676-3680 (1986).

The subject of the next data set is Staph. aureus. The experiment in a line: Minimal inhibitory concentration, Staph. aureus. The class given is cell-based. To be noted: Staph. aureus ATCC 29213, 1/2×TSB, 37° C., 18 to 24 hours; for MIC: Staphylococcus aureus, ATCC29213. The method, then: as §1, §2, §3
Another data set deals with Pseudomonas aeruginosa. The experiment in a line: Minimal inhibitory concentration, Pseudomonas aeruginosa. The class given is cell-based. To be noted: Pseudomonas aeruginosa ATCC 27853, 1/2×TSB, 37° C., 18 to 24 hours; for MIC: ATCC27853. The method, then: as §1, §2, §3
The test system of the next data set is Strep. faecalis. The experiment in a line: Minimal inhibitory concentration, Strep. faecalis. To be noted: Strep. faecalis ATCC 29212, 1/2×TSB, 37° C., 18 to 24 hours; for MIC: Enterococcus faecalis, ATCC29212. The class given is cell-based. Here is the method: as §1, §2, §3
In a further data set the test system is Candida albicans. The experiment in a line: Minimal inhibitory concentration, Candida albicans. To be noted: for MIC: ATCC14053; for MIC / Minimal Inhibitory Concentration: Candida albicans ATCC 14053, 1/2×TSB, 37° C., 18 to 24 hours. Format: cell-based. Here is the method: as §1, §2, §3
The subject of the next data set is Proteus vulgaris. The data set can be described thus: Minimal inhibitory concentration, Proteus vulgaris. Particulars: Proteus vulgaris ATCC 13315, 1/2×TSB, 37° C., 18 to 24 hours; for MIC: ATCC13315. The class given is cell-based. The method, then: as §1, §2, §3
The test system of another data set is Serratia marcescens. The experiment in a line: Minimal inhibitory concentration, Serratia marcescens. Particulars: Serratia marcescens ATCC 8100, 1/2×TSB, 37° C., 18 to 24 hours; for MIC: ATCC8100. Format: cell-based. The method, then:
as §1, §2, §3

In another data set the test system is Paramecium caudatum. The data set can be described thus: Minimal disruptive concentration, Paramecium caudatum. Format: cell-based. Particulars: for MIC / Minimal Inhibitory Concentration (minimal disruptive concentration for the protozoa): 1% trypticase soy broth, light microscopy for ten minutes; for MIC: read-out: Minimal Inhibitory Concentration (minimal disruptive concentration for the protozoa). Here is the method:
as §1, §3
(§4) Minimal disruptive concentration (the concentration at which physical disruption of the protozoa occurred) was determined for the protozoa by adding […] of sample (in sodium acetate as above) to […] of 1% trypticase soy broth containing P. caudatum (Nasco, Fort Atkinson, Wiss,). Organisms were observed by light microscopy for ten minutes.

Data set [1] can be described thus: Hemolytic activity against human erythrocytes. Format: cell-based. Particulars: human; 92 μg/ml; 10% erythrocytes in PBS, 37° C., ten minutes; Triton X-100 = 100%. The method, then:
(§5) Because of its structural resemblance to steroidal detergents, squalamine was assayed for its hemolytic activity against human erythrocytes.
(§6) Each sample was diluted in H2 O and was added to a 10% (vol/vol) suspension of human erythrocytes in phosphate buffered saline (PBS). Erythrocytes were collected with heparin and washed once in 1×PBS before the assay. Samples were incubated at 37° C. for ten minutes, centrifuged at 12,000× g for one minute, and the OD350 of the supernatant was measured. Addition of Triton X-100 (final concentration 0.1%) defined 100% hemolysis.

In data set [2] the test system is several microbial organisms. The data set can be described thus: In vitro antimicrobial spectrum (bacteria, fungi, protozoa), in words. The class given is cell-based. To be noted: for antibiotic activity (in words): bacteria, fungi, protozoa, concentration range studied. Here is the method:
as §1, §2, §3, §4

The test system of another data set is human erythrocytes. The experiment in a line: Hemolytic activity against human erythrocytes. The class given is cell-based. Here is the method:
as §5, §6

For the next data set, the system named is E. coli D31. The data set can be described thus: Protease resistance of antimicrobial activity (proteinase K). To be noted: proteinase K 2 mg/ml, one hour, 37° C.; E. coli D31 lawn. The class given is in vitro ADME. The method, then:
Proteinase K (final concentration 2 mg/ml) was added to 0.2 μg/μl squalamine or 0.8 μg/μl magainin II amide in 1×phosphate-buffered saline. After a one hour incubation at 37° C., 2 μl of each sample was applied to the lawn of E. coli D31.

For `CC1(C)S[C@@H]2[C@H](NC(=O)[C@H](N)c3ccccc3)C(=O)N2[C@H]1C(=O)O` [Ampicillin, ampicillin], the MIC against E. coli was 2 to 4 µg/mL (≈ 5.72 to 11.4 µM); in the data set on Staph. aureus, 1 µg/mL (≈ 2.86 µM); against Pseudomonas aeruginosa it was 62 to 125 µg/mL (≈ 177 to 358 µM); in the data set with Strep. faecalis, under 0.25 µg/mL; in the data set with Candida albicans, over 125 µg/mL; in the data set on Proteus vulgaris it was 8 to 16 µg/mL (≈ 22.9 to 45.8 µM). The results for the MIC against Serratia marcescens and in the data set on Paramecium caudatum were 4 to 62 µg/mL (≈ 11.4 to 177 µM) and over 65 µg/mL, respectively. Moreover, the hemolysis at 10 min in [1] was under 0.5%.

As for `C[C@H](CCC(=O)NCCC[N+](C)(C)CCCS(=O)(=O)[O-])[C@H]1CC[C@H]2[C@@H]3[C@H](O)C[C@@H]4C[C@H](O)CC[C@]4(C)[C@H]3C[C@H](O)[C@]12C` [CHAPS, 3-[(3-cholamidopropyl)dimethylammonio]-1-propane sulfonate dihydrate], the MIC with E. coli is over 500 µg/mL; in the data set on Staph. aureus, over 500 µg/mL; with Pseudomonas aeruginosa, over 500 µg/mL; against Strep. faecalis, 250 to 500 µg/mL; with Candida albicans, over 500 µg/mL; in the data set on Proteus vulgaris, over 500 µg/mL. For the same compound, the values for the MIC against Serratia marcescens and in the data set with Paramecium caudatum were over 500 µg/mL and over 260 µg/mL, respectively. Moreover, the “antibiotic activity (in words)” value in [2] was “inactive as an antibiotic”. In [1], this compound returned a hemolysis at 10 min of under 0.5%.

For the compound `C[C@H]1[C@H]2CC[C@H]3[C@@H]4CC=C5C[C@@H](N(C)C)CC[C@]5(C)[C@H]4CC[C@]23CN1C` [Conessine], the MIC is over 500 µg/mL in the data set with E. coli; over 500 µg/mL with Staph. aureus; over 500 µg/mL in the data set on Pseudomonas aeruginosa; over 500 µg/mL in the data set with Strep. faecalis; 31 to 62 µg/mL (≈ 86.9 to 174 µM) against Candida albicans; over 500 µg/mL with Proteus vulgaris. Moreover, the MIC in the data set with Serratia marcescens is over 500 µg/mL; in the data set with Paramecium caudatum, 16 to 33 µg/mL (≈ 44.9 to 92.5 µM). Further, the “antifungal activity (in words)” value in the data set with Candida albicans (Candida) is “exhibits antifungal (Candida) and antiprotozoan (Paramecium caudatum) activity”. In the data set on Paramecium caudatum, the “antiprotozoan activity (in words)” value was “exhibits antifungal (Candida) and antiprotozoan (Paramecium caudatum) activity”. Further, the “antibacterial activity (in words)” value in data set [2] (bacteria of Table I) was “lacks antibacterial activity”. In data set [1], the hemolysis at 10 min is under 0.5%.

For `CC[C@H](C)[C@H](NC(=O)CN)C(=O)NCC(=O)N[C@@H](C)C(=O)N[C@H](C(=O)N[C@@H](CC(C)C)C(=O)N[C@@H](CCCCN)C(=O)N[C@H](C(=O)N[C@@H](CC(C)C)C(=O)N[C@H](C(=O)N[C@H](C(=O)NCC(=O)N[C@@H](CC(C)C)C(=O)N1CCC[C@H]1C(=O)N[C@@H](C)C(=O)N[C@@H](CC(C)C)C(=O)N[C@H](C(=O)N[C@@H](CO)C(=O)N[C@@H](Cc1c[nH]c2ccccc12)C(=O)N[C@H](C(=O)N[C@@H](CCCCN)C(=O)N[C@@H](CCCNC(=N)N)C(=O)N[C@@H](CCCCN)C(=O)N[C@@H](CCCNC(=N)N)C(=O)N[C@@H](CCC(N)=O)C(=O)N[C@@H](CCC(N)=O)C(N)=O)[C@@H](C)CC)[C@@H](C)CC)[C@@H](C)O)[C@@H](C)O)C(C)C)C(C)C` [Melittin], the “Minimal Inhibitory Concentration” value was 8 to 16 µg/mL in the data set with E. coli; 8 to 16 µg/mL in the data set on Staph. aureus; 16 to 31 µg/mL in the data set on Pseudomonas aeruginosa; 4 to 16 µg/mL with Strep. faecalis; 16 to 31 µg/mL with Candida albicans; 16 to 31 µg/mL with Proteus vulgaris. The “Minimal Inhibitory Concentration” value in the data set on Serratia marcescens was over 250 µg/mL. For the same compound, the “Minimal Inhibitory Concentration (minimal disruptive concentration for the protozoa)” value in the data set on Paramecium caudatum lay within 2 to 4 µg/mL. The “antibiotic versus hemolytic concentration / selectivity (in words)” value in the data set on human erythrocytes (antibiotic activity compared with erythrocyte disruption) is given as “fall within a similar concentration range”.

`NCCCCNCCCN` [Spermidine]: the MIC with E. coli is over 500 µg/mL; against Staph. aureus it was over 500 µg/mL; with Pseudomonas aeruginosa it was over 500 µg/mL; against Strep. faecalis, 250 to 500 µg/mL (≈ 1720 to 3440 µM); against Candida albicans, over 500 µg/mL; in the data set with Proteus vulgaris, over 500 µg/mL. Further, the MIC was over 500 µg/mL against Serratia marcescens and over 260 µg/mL with Paramecium caudatum. The “antibiotic activity (in words)” value in data set [2] was “inactive as an antibiotic”. For the same compound, the hemolysis at 10 min in data set [1] was under 0.5%.

For `C[C@H](CCC(=O)NCCS(=O)(=O)O)[C@H]1CC[C@H]2[C@@H]3CC[C@@H]4C[C@H](OS(=O)(=O)O)CC[C@]4(C)[C@H]3CC[C@]12C` [Taurolithocholic Acid 3-sulfate, taurolithocholic acid 3-sulfate], the MIC against E. coli, against Staph. aureus, against Pseudomonas aeruginosa, in the data set with Strep. faecalis, against Candida albicans and in the data set with Proteus vulgaris was over 500 µg/mL in each case. The MIC in the data set with Serratia marcescens is over 500 µg/mL; with Paramecium caudatum, over 260 µg/mL. Moreover, in data set [2], the “antibiotic activity (in words)” value is “inactive as an antibiotic”.

Take “GFGSFLGKALKAALKIGANALGGSPQQ-NH2 [CPF, caerulein percursor fragment, Xenopus antimicrobial peptide]”: the “Minimal Inhibitory Concentration” value in the data set with E. coli is 8 to 16 µg/mL; in the data set with Staph. aureus, 8 to 16 µg/mL; in the data set on Pseudomonas aeruginosa it was 8 to 31 µg/mL; in the data set on Strep. faecalis, 31 to 62 µg/mL; with Candida albicans it was 62 to 125 µg/mL; in the data set with Proteus vulgaris it was 62 to 125 µg/mL. In addition, in the data set on Serratia marcescens, the “Minimal Inhibitory Concentration” value is over 125 µg/mL. Moreover, in the data set with Paramecium caudatum, the “Minimal Inhibitory Concentration (minimal disruptive concentration for the protozoa)” value lay in the range of 4 to 8 µg/mL. The compound also registered a hemolysis in the data set on human erythrocytes (92 μg/ml, 10% erythrocytes in PBS, 37° C., ten minutes, Triton X-100 = 100%, 10 min) of 3%.

On to Magainin II, for which the “Minimal Inhibitory Concentration” value was 31 to 62 µg/mL in the data set on E. coli; over 250 µg/mL in the data set on Staph. aureus; 31 to 62 µg/mL in the data set with Pseudomonas aeruginosa; over 250 µg/mL in the data set with Strep. faecalis; 125 to 250 µg/mL in the data set on Candida albicans; 125 to 250 µg/mL with Proteus vulgaris. Further, the “Minimal Inhibitory Concentration” value in the data set on Serratia marcescens is over 250 µg/mL. Further, the “Minimal Inhibitory Concentration (minimal disruptive concentration for the protozoa)” value in the data set on Paramecium caudatum fell in the range of 33 to 65 µg/mL. The “antimicrobial activity after proteinase K digestion” value in the data set on E. coli D31 is on record as “lost all activity on proteinase K digestion”.
